# Key:
# [1] = test system: T47D; assay: Cytotoxicity assay (CCK-8), T47D; format: cell-based, human; conditions: T47D (estrogen receptor positive), 48 hours incubation
# Excerpt: (§1) Materials: DMEM (medium), RPMI (medium), L-glutamine, penicillin, streptomycin and FBS (fetal bovine serum) were obtained from Gibco (NY, USA). Culture plasticware was purchased from Coming (MA, USA). […] All other chemicals used were of reagent grade and were purchased from Sigma or E. Merck (Germany).
# (§2) Cell lines and cell cultures: The human breast cancer cell lines T47D and MDA-MB231 were obtained from American Type Culture Collection (ATCC). Of both cancer cells, T47D is estrogen receptor positive, and MDA-MB231 is estrogen receptor negative. Cells were cultured at 37°C in RPMI medium containing 10% charcoal-dextran stripped fetal bovine serum for T47D cells and in DMEM medium containing 10% charcoal-dextran stripped fetal bovine serum for MDA-MB231 cells with 5% CO2. The cell proliferation was determined by counting the viable cells with trypan blue exclusion.
# (§3) Cytotoxicity assay: Dispense 198 µl of cell suspension (20,000 cells for T47D per well and 10,000 cell for MDA-MB231 per well) in a 96-well plate and pre-incubate the plate for 24 hours in an incubator at 37°C with humidified 5% CO2. […] After plate was incubated for 48 hours in the incubator, media were aspirated of and new media (100 µl) were added and incubated for more 1 hour. […] Measure the absorbance at 450 nm using a ELISA reader. […]
# [2] = test system: MDA-MB231; assay: Cytotoxicity assay (CCK-8), MDA-MB231; format: cell-based, human; conditions: MDA-MB231 (estrogen receptor negative), 48 hours incubation
# Excerpt: as §1, §2, §3
# [3] = test system: osteoporosis caused by estrogen deficiency; assay: Ovariectomized rat osteoporosis model: bone histomorphometry and apparent bone density; format: in vivo, female Wistar rats
# Excerpt: The purpose of this example is to show the potency of bakuchiol in treating osteoporosis, wherein ovary of a female rat is removed to stimulate osteoporosis caused by estrogen deficiency.
# The female Wistar rats of 16 weeks old (unless specified in the other experiment description) were obtained from the stock reared by the Animal breeding center, National Scientific Council in Taipei. These rats were grouped by weights matched in order to distribute the physiological response variation from rats evenly into each group. These rats were grouping as follows: • Baseline group fed with no drug added food (n=8) • Sham operation group fed with no drug added food (Sham) (n=10) • Ovariectomy operation group fed with no drug added food (OVX) (n=8) • Ovariectomy operation group fed with Drug A (5 mg/kg) added food (OVX+A) (n=9) • Ovariectomy operation group fed with Drug B (15 mg/kg) added food (OVX+B) (n=9)
# Ovariectomy (removal of ovaries) operation: Ovariectomy was induced using a protocol similar to that described by Wronski et al (Wronski et al, Endocrinology, 123 (2), 681-686 ([…]))
# During the experiments, the rats were housed in hanging grid cages in groups of two at 21°C with a 12 hours dark cycle. Food (Rat-mouse diet III, adequate in 1 % of calcium content and 1.2 % of phosphate content, Purina, USA) was administered by paired feeding between the experimental and control groups. Pair-feeding was carried out by calculating the average amount of food intake in the Sham group. So give the same amount of food to the OVX , OVX+A (5 mg/kg), OVX+B (15 mg/kg) group animals the following day. These animals were fed with a period of two months except for the baseline group which were killed on the very day of doing ovariectomy or sham operation. Rats of OVX+A and OVX+B groups were fed with the usual food chuck but added certain amount of compound A and B in it respectively. Water was given ad libitum to all rats.
# The test drug was weighted according to dose of 5 mg/kg and 15 mg/kg, and added into the ususal food chuck powder and mixed with 10% starch paste. After fully mixed, these chuck powder were made into mass manually and dried by air flow oven. The food with added drug to rats was performed by single blind method.
# These labeling and bone histomorphometry assessment were done based on standard procedure in bone research (Lin et al, Calcif. Tissue Int., 67, 373-377 (2000)). […] Seven µm thick unstained sections were prepared for fluorescent microscopy and assessed with program Osteomeasure (3.0 version, Atlanta, USA). […]
# The whole tibia and femur were stripped off attached muscles and ligaments after sacrifice. […] The weight of bone measured in the air was marked as W-air. […] The apparent bone density was calculated as [W-air/(W-air minus W-water)] […]
compound,measurement,setting,value
"C=C[C@@](C)(/C=C/c1ccc(O)cc1)CCC=C(C)C [Bakuchiol, bakuchiol]",50% inhibition of cell growth concentrations of test compounds (IC50),[1],5.00 μg/cc
same,50% inhibition of cell growth concentrations of test compounds (IC50),[2],0.62 μg/cc
same,bone volume of proximal tibia,"[3]; OVX+A (5 mg/kg) and OVX+B (15 mg/kg) in food, two months, vs OVX group, p < 0.001, Figure 1",increase
same,"erosion surface (ES/BS,%) of proximal tibia","[3]; OVX+A (5 mg/kg) and OVX+B (15 mg/kg) in food, two months, vs OVX group, p < 0.001, Figure 3",inhibition of bone erosion
same,bone apparent density of tibia,"[3]; OVX+A (5 mg/kg) and OVX+B (15 mg/kg) in food, two months, vs OVX group, p < 0.05, Figure 2",increase
same,therapeutic effect on osteoporosis,"[3]; ovariectomized female rat, low dose (5 mg/kg)",possess a therapeutic effect on osteoporosis by inhibiting the bone resorption

# From patent EP1714646A1, “Pharmaceutical composition containing bakuchiol for treating osteoporosis in women” (Sinphar Pharmaceutical Co., Ltd., priority 2005, dated 2006)
